The text below walks through data of patent US12419918B2, “Pediococcus acidilactici CCFM6432 for alleviating depression, food fermented thereby and application thereof” (Jiangnan University, priority 2019, dated 2025).

One assay deals with depressed mice. The assay can be described thus: Elevated plus-maze test. The assay is classed as in vivo, C57BL/6J mice. The note with it: chronic unpredictable mild stress mice; gavage; activities within 10 min. The method, then:
32 6-week-old male C57BL/6J mice were selected. After one week of adaptation to the environment, the mice were randomly divided into four groups according to body weight: a normal control group, a depression model group, a drug intervention group, and a CCFM6432 intervention group, each containing 8 mice.
Chronic unpredictable stress depression mouse model: 1-2 kinds of stimuli were randomly performed every day, and the performance time of stimuli every day was determined randomly to avoid the circadian rhythm. Each method was used for not more than three times, and the stimuli were performed for five weeks. The stimuli include: (1) fasting for 24 h; (2) water deprivation+empty bottle stimulus for 24 h; (3) tail pinching for 3 min; (4) wet padding for 24 h; (5) immobilization for 1-2 h; (6) 45° tilted cage for 24 h; (7) continuous lighting for 24 h; (8) no padding for 24 h; (9) forced swim for 15 min; and (10) separation for 24 h. […]
At the beginning of the test, a mouse was placed into a maze from the central grid facing a closed arm, and its activities within 10 min were recorded. […] The proportion of time spent in the open arms, the proportion of entries in the open arms, and the total number of entries in the elevated plus maze were calculated. […]

Another assay concerns IL-1β, IL-6 and TNF-α. The assay can be described thus: IL-1β, IL-6 and TNF-α in the serum by ELISA kit. The assay is classed as in vivo. The following applies: chronic stress mice; sixth weekend. As for the experimental part: (§1) The mice in Example 2 were euthanized at the sixth weekend. A fresh mouse spleen (about 50 mg) was taken, 5 mL of a pre-chilled PBS buffer was added, and the mouse spleen was cut, ground, and filtered with a 200-mesh nylon sieve to obtain a tissue cell suspension. 2 mL of an erythrocyte lysate was added for lysis for 4 min, and the lysate was removed by centrifugation at room temperature (300×g, 5 min). The obtained cell precipitate was washed with pre-cooled PBS twice, and resuspended with a certain amount of PBS to obtain a lymphocyte suspension. Antibody labeling of regulatory T cells (Tregs) was performed in accordance with the instructions of an eBioscience Mouse Regulatory T cell Staining Kit (Invitrogen Corporation, Carlsbad, CA, USA). The Tregs (CD4+CD25+Foxp3+) were detected by flow cytometry. The contents of IL-1β, IL-6 and TNF-α in the serum were detected with an ELISA kit.
(In general: ELISA stands for enzyme-linked immunosorbent assay.)

The test system of the next assay is intestinal microbiome. The assay can be described thus: 16S rDNA sequencing of the intestinal microbiome from mouse feces. It is filed as in vivo. The following applies: depressed mice feces. An excerpt: Fresh feces of the mice in Example 2 was taken at the sixth weekend, and total DNA was extracted from the mouse feces sample using an MP feces kit. Specific operation steps are as follows, mainly referring to the kit instructions. The mouse fecal genome was used as a template, V3-V4 fragments of 16S rDNA were amplified using a forward primer 520F (5′-AYTGGGYDTAAAGNG-3′) and a reverse primer 802R (5′-TACNVGGGTATCTAATCC-3′) as primers, and the length of a target fragment was about 247 bp. After the PCR reaction, all PCR samples in which target bands were observed were electrophoresed again, a 2.0% agarose gel was prepared, and electrophoresis was performed at 120 V for 40 min. […] The DNA concentration of the sample was measured according to a Qubit DNA3.0 kit, then a library was constructed according to a TurSeq DNA LT Sample Preparation Kit and instructions thereof, and finally determination was performed on an Illumina Miseq sequencer according to a MiSeq Regent Kit and instructions thereof. […] The sequences with the similarity greater than 97% were defined as a taxonomic unit (Operational Taxonomic Unit, OTU), and the species was determined by a Ribosomal Database Project (RDP) Naïve Bayesclassifier. The α-diversity and β-diversity of the sample were calculated to assess the bacterial diversity of the sample. […] The β-diversity was assessed by principal co-ordinates analysis (PCoA) (FIG. 9C). […]

The subject of assay [1] is regulatory T cells (Tregs). As to the kind of experiment: Regulatory T cells (CD4+CD25+Foxp3+) in spleen by flow cytometry. It is filed as in vivo. The following applies: chronic stress mice; sixth weekend. As for the experimental part: as §1
For orientation: In flow cytometry, cells or beads pass a laser one at a time.

Each structure is given as a SMILES string.

As for `CNCCC(Oc1ccc(C(F)(F)F)cc1)c1ccccc1` (stereo not shown) [Fluoxetine, fluoxetine], the “entries and time spent in the open arms” value with depressed mice was “had no effect”. Moreover, the “degree of inflammation (IL-1β, IL-6 and TNF-α in the serum)” value with IL-1β, IL-6 and TNF-α is on record as “reduce the degree of inflammation”. Also, the “structure of the intestinal microbiome (β-diversity, PCoA)” value with intestinal microbiome is recorded as “could normalize the structure of the intestinal microbiome”. In addition, the “immune state (proportion of Tregs in the spleen)” value in assay [1] is given as “could significantly improve the immune state”.
